Experimental findings from ChEMBL document CHEMBL1142918, “Carbonic anhydrase and matrix metalloproteinase inhibitors. Inhibition of human tumor-associated isozymes IX and cytosolic isozyme I and II with sulfonylated hydroxamates” (Bioorg Med Chem, 2007) are described below.

Molecules are shown by their SMILES.

Targets include Carbonic anhydrase 1 (Homo sapiens, UniProt P00915); Carbonic anhydrase 2 (Homo sapiens, UniProt P00918); Carbonic anhydrase 9 (Homo sapiens, UniProt Q16790).
The target in experiment [1] is Matrix metalloproteinase-9 (Homo sapiens, UniProt P14780).
Description: Inhibition of human recombinant MMP9 expressed in mouse myeloma cells
The target of experiment [2] is 72 kDa type IV collagenase (Homo sapiens, UniProt P08253).
Sequence of 72 kDa type IV collagenase (P08253 whole entry): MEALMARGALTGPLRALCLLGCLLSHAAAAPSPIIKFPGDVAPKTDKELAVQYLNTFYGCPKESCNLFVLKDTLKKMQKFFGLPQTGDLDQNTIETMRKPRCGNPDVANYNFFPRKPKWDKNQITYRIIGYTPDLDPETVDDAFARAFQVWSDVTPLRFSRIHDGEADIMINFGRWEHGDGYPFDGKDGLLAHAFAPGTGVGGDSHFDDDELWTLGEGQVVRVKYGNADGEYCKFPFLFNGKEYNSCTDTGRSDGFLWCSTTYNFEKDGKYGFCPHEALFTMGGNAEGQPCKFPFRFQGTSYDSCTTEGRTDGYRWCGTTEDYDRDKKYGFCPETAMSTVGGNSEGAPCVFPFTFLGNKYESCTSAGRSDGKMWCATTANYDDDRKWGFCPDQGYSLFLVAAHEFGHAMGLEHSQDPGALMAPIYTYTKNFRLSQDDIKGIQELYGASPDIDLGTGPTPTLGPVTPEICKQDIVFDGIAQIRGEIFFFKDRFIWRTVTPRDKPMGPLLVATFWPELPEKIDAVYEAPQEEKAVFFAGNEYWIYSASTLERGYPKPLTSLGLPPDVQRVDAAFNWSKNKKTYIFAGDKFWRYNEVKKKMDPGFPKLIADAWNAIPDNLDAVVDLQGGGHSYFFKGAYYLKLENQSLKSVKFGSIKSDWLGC
Description: Inhibition of human recombinant MMP2 expressed in mouse myeloma cells

Sequence of Carbonic anhydrase 1 (P00915 whole entry): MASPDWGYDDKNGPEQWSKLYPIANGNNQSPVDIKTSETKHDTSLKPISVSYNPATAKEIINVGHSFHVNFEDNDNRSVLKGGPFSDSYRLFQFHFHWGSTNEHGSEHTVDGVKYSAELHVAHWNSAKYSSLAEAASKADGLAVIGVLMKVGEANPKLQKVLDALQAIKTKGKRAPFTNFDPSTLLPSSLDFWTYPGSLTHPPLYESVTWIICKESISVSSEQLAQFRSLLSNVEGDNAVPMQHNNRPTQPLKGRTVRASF
Sequence of Matrix metalloproteinase-9 (P14780 whole entry): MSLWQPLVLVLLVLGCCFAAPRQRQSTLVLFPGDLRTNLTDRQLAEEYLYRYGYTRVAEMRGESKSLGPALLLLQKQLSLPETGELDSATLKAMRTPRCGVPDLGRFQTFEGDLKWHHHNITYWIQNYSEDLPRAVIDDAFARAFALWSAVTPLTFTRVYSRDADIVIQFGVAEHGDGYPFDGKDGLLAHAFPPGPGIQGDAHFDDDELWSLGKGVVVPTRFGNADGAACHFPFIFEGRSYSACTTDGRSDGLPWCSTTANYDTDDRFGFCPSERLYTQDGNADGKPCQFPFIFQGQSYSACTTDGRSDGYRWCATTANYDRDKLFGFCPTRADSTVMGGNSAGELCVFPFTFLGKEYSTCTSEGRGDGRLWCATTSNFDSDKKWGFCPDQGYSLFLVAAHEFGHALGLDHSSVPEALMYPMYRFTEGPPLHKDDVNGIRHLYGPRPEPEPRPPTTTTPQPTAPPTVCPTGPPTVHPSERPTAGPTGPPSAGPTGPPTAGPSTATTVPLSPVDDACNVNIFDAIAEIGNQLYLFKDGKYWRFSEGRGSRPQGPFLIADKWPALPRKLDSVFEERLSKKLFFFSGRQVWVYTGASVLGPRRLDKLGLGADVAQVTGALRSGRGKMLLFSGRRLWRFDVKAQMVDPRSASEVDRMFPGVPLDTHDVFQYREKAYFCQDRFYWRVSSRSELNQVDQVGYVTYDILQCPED
Description for Carbonic anhydrase 1: Inhibition of human recombinant carbonic anhydrase 1 by CO2 hydration method
Description for Carbonic anhydrase 2: Inhibition of human recombinant carbonic anhydrase 2 by CO2 hydration method
Description for Carbonic anhydrase 9: Inhibition of human recombinant carbonic anhydrase 9 by CO2 hydration method

On to `O=C(CNOCc1ccccc1)NO`, for which the inhibitory constant (Ki) on Carbonic anhydrase 1 turned out to be 490 µM; on Carbonic anhydrase 2 it was 94 µM; at Carbonic anhydrase 9, 6.7 µM. Besides, the IC50 is 256 µM in experiment [1] and 94 µM in experiment [2].

As for `COc1ccc(S(=O)(=O)N(CC(=O)NO)OCc2ccccc2)cc1`, the Ki at Carbonic anhydrase 1 worked out at 0.88 µM; on Carbonic anhydrase 2, 0.096 µM; at Carbonic anhydrase 9, 7.5 µM. The figures for the 50% inhibitory concentration (IC50) in experiment [1] and in experiment [2] were 0.87 µM and 1.06 µM, respectively.

For `COc1ccc(S(=O)(=O)N(CC(=O)NO)OC(C)C)cc1`, the inhibitory constant (Ki) at Carbonic anhydrase 1 is 4.1 µM; at Carbonic anhydrase 2, 0.091 µM; at Carbonic anhydrase 9, 9.5 µM. Further, the IC50 in experiment [1] was 3.4 µM; in experiment [2], 4.9 µM.

For `CCCCCCCCCCCCCCON(CC(=O)NO)S(=O)(=O)c1ccc(OC)cc1`, the Ki at Carbonic anhydrase 1 was 0.89 µM; on Carbonic anhydrase 2, 0.097 µM; at Carbonic anhydrase 9, 7.4 µM. The values for the IC50 in experiment [1] and in experiment [2] were 33 µM and 30 µM, respectively.

With `O=C(CNOCc1ccc(Cl)cc1)NO`, the inhibition constant (Ki) on Carbonic anhydrase 1 is 10 µM; at Carbonic anhydrase 2, 4.8 µM; on Carbonic anhydrase 9, 8.8 µM. The figures for the IC50 in experiment [1] and in experiment [2] were 261 µM and 137 µM, respectively.

As for `COc1ccc(S(=O)(=O)N(CC(=O)NO)OC2C3CC4CC(C3)CC2C4)cc1` (stereo not drawn), the values for the Ki on Carbonic anhydrase 1, at Carbonic anhydrase 2 and at Carbonic anhydrase 9 were 0.9 µM, 0.096 µM and 7.8 µM, respectively. The IC50 in experiment [1] stood at 2 µM; in experiment [2] it was 1.98 µM.

Consider `COc1ccc(S(=O)(=O)N(CC(=O)NO)OCc2ccc(OCc3ccccc3)cc2)cc1`, for which the Ki at Carbonic anhydrase 1 was 5.9 µM; at Carbonic anhydrase 2, 0.095 µM; at Carbonic anhydrase 9, 8.7 µM. The figures for the IC50 in experiment [1] and in experiment [2] were 1.83 µM and 2.1 µM, respectively.

On to `CC(NOCc1ccc(Cl)cc1)C(=O)NO` (stereo not drawn), for which the inhibition constant (Ki) on Carbonic anhydrase 1 stood at 9.8 µM; on Carbonic anhydrase 2, 4.7 µM; on Carbonic anhydrase 9, 9.2 µM. The figures for the IC50 in experiment [1] and in experiment [2] were 141 µM and 68 µM, respectively.

As to `CCCCC(NOCc1ccccc1)C(=O)NO` (stereo not drawn), the Ki at Carbonic anhydrase 1 came to 520 µM; at Carbonic anhydrase 2 it was 7.8 µM; at Carbonic anhydrase 9, 7.6 µM. Moreover, the results for the IC50 in experiment [1] and in experiment [2] were 81.5 µM and 33.7 µM, respectively.

`CCC(C)C(NOCc1ccccc1)C(=O)NO` (stereo not drawn): the Ki on Carbonic anhydrase 1 turned out to be 435 µM; at Carbonic anhydrase 2, 267 µM; on Carbonic anhydrase 9, 7.1 µM. Further, the results for the concentration for half-maximal inhibition (IC50) in experiment [1] and in experiment [2] were 352 µM and 151 µM, respectively.

As for `COc1ccc(S(=O)(=O)N(CC(=O)NO)OCc2ccc(Cl)cc2)cc1`, the inhibition constant Ki worked out at 156 µM at Carbonic anhydrase 1, 4.2 µM at Carbonic anhydrase 2 and 9.3 µM at Carbonic anhydrase 9. The IC50 in experiment [1] came out at 0.33 µM; in experiment [2] it was 1.5 µM.

As for `CCON(CC(=O)NO)S(=O)(=O)c1ccc(OC)cc1`, the inhibitory constant (Ki) was found to be 8.91 µM at Carbonic anhydrase 1, 8.7 µM at Carbonic anhydrase 2 and 9 µM on Carbonic anhydrase 9. Also, the half-inhibitory concentration (IC50) in experiment [1] was 2.2 µM; in experiment [2], 9.6 µM.

With `CCCCC(NOCc1ccc(Cl)cc1)C(=O)NO` (stereo not drawn), the Ki at Carbonic anhydrase 1 is 10.2 µM; at Carbonic anhydrase 2, 6.1 µM; at Carbonic anhydrase 9 it was 6.9 µM. Moreover, the IC50 in experiment [1] was 125 µM; in experiment [2] it was 81.8 µM.

In the case of `CCC(C)ON(C(C(=O)NO)C(C)C)S(=O)(=O)c1ccc(OC)cc1` (stereo not drawn), the inhibitory constant (Ki) on Carbonic anhydrase 1 came to 9.7 µM; at Carbonic anhydrase 2, 9.6 µM; at Carbonic anhydrase 9 it was 9.2 µM. Besides, the values for the IC50 in experiment [1] and in experiment [2] were 0.286 µM and 0.73 µM, respectively.

For the compound `COc1ccc(S(=O)(=O)N(OC(C)C)C(C(=O)NO)C(C)C)cc1` (stereo not drawn), the inhibitory constant (Ki) came to 9 µM at Carbonic anhydrase 1, 0.094 µM at Carbonic anhydrase 2 and 9.3 µM at Carbonic anhydrase 9. Besides, the results for the concentration for half-maximal inhibition (IC50) in experiment [1] and in experiment [2] were 0.37 µM and 0.66 µM, respectively.

`COc1ccc(S(=O)(=O)N(Cc2cccnc2)[C@@H](C(=O)NO)C(C)C)cc1` [CGS-27023A]: the inhibitory constant (Ki) at Carbonic anhydrase 1 was 281 µM; at Carbonic anhydrase 2, 8.6 µM; at Carbonic anhydrase 9 it was 7.8 µM.

What is called Ki is the equilibrium dissociation constant of an inhibitor or competing ligand from its target. A low value points to higher affinity. By IC50 is commonly meant the concentration that gives 50% inhibition.
